Test results from patent US7531646B2, “β-D-ribosidase activity indicators with a chromogenic substrate” (priority 2001, dated 2009).

Experiments:
Assay in all cases: Substrate hydrolysis on Columbia agar
[1] = test system: Vibrio harveyi; format: cell-based; conditions: Vibrio harveyi NCTC 11346; 300 mg/l; 18 hours
[2] = test system: Salmonella oranienburg; format: cell-based; conditions: Salmonella oranienburg SAX 56; 300 mg/l; 18 hours
[3] = test system: Vibrio anguillarum; format: cell-based; conditions: Vibrio anguillarum NCTC 12159; 300 mg/l; 18 hours
[4] = test system: Salmonella typhi; format: cell-based; conditions: Salmonella typhi NCTC 8385; 300 mg/l; 18 hours
[5] = test system: Staphylococcus epidermidis; format: cell-based; conditions: 300 mg/l, 18 hours
[6] = test system: Bacillus licusniforms; format: cell-based; conditions: Bacillus licusniforms NCIMB 9375; 300 mg/l; 18 hours
[7] = test system: Enterococcus faecium; format: cell-based; conditions: 300 mg/l, 18 hours
[8] = test system: Vibrio cincinnatiensis; format: cell-based; conditions: Vibrio cincinnatiensis NCTC 12012; 300 mg/l; 18 hours
[9] = test system: Vibrio cholerae; format: cell-based; conditions: 300 mg/l, 18 hours
[10] = test system: E. coli 0157; format: cell-based; conditions: 300 mg/l, 18 hours
[11] = test system: Streptococcus milleri; format: cell-based; conditions: Streptococcus milleri wild; 300 mg/l; 18 hours
[12] = test system: Streptococcus salivarius; format: cell-based; conditions: Streptococcus salivarius NCTC 8618; 300 mg/l; 18 hours
[13] = test system: P. aeruginosa; format: cell-based; conditions: 300 mg/l, 18 hours
[14] = test system: Staphylococcus saprophyticus; format: cell-based; conditions: 300 mg/l, 18 hours
[15] = test system: M. morganii; format: cell-based; conditions: 300 mg/l, 18 hours
[16] = test system: Streptococcus pneumoniae; format: cell-based; conditions: Streptococcus pneumoniae NCTC 7465; 300 mg/l; 18 hours
[17] = test system: Salmonella orthmarchen; format: cell-based; conditions: Salmonella orthmarchen SAX 59; 300 mg/l; 18 hours
[18] = test system: Salmonella alachia; format: cell-based; conditions: Salmonella alachia SAX 60; 300 mg/l; 18 hours
From the text: (§1) This was achieved using a densitometer.
(§2) The same method was used as in Example 1.

[19] = test system: Shigella flexneri; format: cell-based; conditions: 300 mg/l, 18 hours
From the text: as §1, §2

[20] = test system: Shigella boydii; format: cell-based; conditions: 300 mg/l, 18 hours
From the text: as §1, §2

[21] = test system: Salmonella motevideo; format: cell-based; conditions: Salmonella motevideo SAX 55; 300 mg/l; 18 hours
From the text: as §1, §2

[22] = test system: Vibrio mimicus; format: cell-based; conditions: Vibrio mimicus NCTC 11435; 300 mg/l; 18 hours
From the text: as §1, §2

[23] = test system: Shigella sonnei; format: cell-based; conditions: 300 mg/l, 18 hours
From the text: as §1, §2

[24] = test system: Enterococcus casseflavus; format: cell-based; conditions: Enterococcus casseflavus NCTC 12361; 300 mg/l; 18 hours
[25] = test system: Providencia alcalifaciens; format: cell-based; conditions: 300 mg/l, 18 hours
[26] = test system: Enterococcus gellinarum; format: cell-based; conditions: Enterococcus gellinarum NCTC 11428; 300 mg/l; 18 hours
[27] = test system: Streptococcus agalactiae; format: cell-based; conditions: Streptococcus agalactiae NCTC 8181; 300 mg/l; 18 hours
[28] = test system: C. diphtheriae; format: cell-based, Corynebacterium diphtheriae; conditions: 300 mg/l, 18 hours
[29] = test system: Aeromonas hydrophila; format: cell-based; set-up: key to the marks not given beside the values; conditions: Aeromonas hydrophila NCTC 8049; 300 mg/l; 18 hours

3′,4′-dihydroxyflavone-4′-β-D-glucopyranoside sodium salt [DHF-glucoside]
−: Hydrolysis by Gram negative bacteria [2] | Hydrolysis by Gram negative bacteria [3] | Hydrolysis by Gram negative bacteria [4] | Hydrolysis by Gram positive organisms ([5]; Staphylococcus epidermidis RB60) | Hydrolysis by Gram positive organisms ([5]; Staphylococcus epidermidis RB62) | Hydrolysis by Gram positive organisms ([5]; Staphylococcus epidermidis RB63) | Hydrolysis by Gram positive organisms ([5]; Staphylococcus epidermidis RB65) | Hydrolysis by Gram negative bacteria ([9]; Vibrio cholera NCTC 6585) | Hydrolysis by Gram negative bacteria ([9]; Vibrio cholera NCTC 7270) | Hydrolysis by Gram negative bacteria ([9]; Vibrio cholera NCTC 8021) | Hydrolysis by Gram negative bacteria ([9]; Vibrio cholera NCTC 10732) | Hydrolysis by Gram negative bacteria ([9]; Vibrio cholera NCTC 12945) | Hydrolysis by Gram negative bacteria ([9]; Vibrio cholerae NCTC 7254) | Hydrolysis by Gram negative bacteria ([9]; Vibrio cholerae NCTC 8042) | Hydrolysis by Gram negative bacteria ([9]; Vibrio cholerae NCTC 10255) | Hydrolysis by Gram negative bacteria ([9]; Vibrio cholerae NCTC 10954) | Hydrolysis by Gram negative bacteria ([10]; E. coli 0157 NCTC 12079) | Hydrolysis by Gram negative bacteria ([10]; E. coli 0157 NCTC 12080) | Hydrolysis by Gram negative bacteria ([10]; E. coli 0157 NCTC 12900) | Hydrolysis by Gram negative bacteria ([10]; E. coli 0157 NCTC 13125) | Hydrolysis by Gram negative bacteria ([10]; E. coli 0157 NCTC 13126) | Hydrolysis by Gram negative bacteria ([10]; E. coli 0157 NCTC 13127) | Hydrolysis by Gram negative bacteria ([10]; E. coli 0157 NCTC 13128) | Hydrolysis by Gram positive organisms [11] | Hydrolysis by Gram negative bacteria ([13]; P. aeruginosa ATCC 10145) | Hydrolysis by Gram negative bacteria ([13]; P. aeruginosa NCTC 10662) | Hydrolysis by Gram positive organisms ([14]; Staphylococcus saprophyticus 1) | Hydrolysis by Gram positive organisms ([14]; Staphylococcus saprophyticus 2) | Hydrolysis by Gram positive organisms ([14]; Staphylococcus saprophyticus 3) | Hydrolysis by Gram positive organisms ([14]; Staphylococcus saprophyticus 4) | Hydrolysis by Gram positive organisms ([14]; Staphylococcus saprophyticus 5) | Hydrolysis by Gram negative bacteria ([15]; M. morganii NCTC 235) | Hydrolysis by Gram positive organisms [16] | Hydrolysis by Gram negative bacteria [17] | Hydrolysis by Gram negative bacteria [18] | Hydrolysis by Gram negative bacteria ([19]; Shigella flexneri NCTC 8192) | Hydrolysis by Gram negative bacteria ([19]; Shigella flexneri NCTC 9723) | Hydrolysis by Gram negative bacteria ([19]; Shigella flexneri NCTC 9780) | Hydrolysis by Gram negative bacteria ([20]; Shigella boydii NCTC 9327) | Hydrolysis by Gram negative bacteria ([20]; Shigella boydii NCTC 9732) | Hydrolysis by Gram negative bacteria ([20]; Shigella boydii NCTC 9850) | Hydrolysis by Gram negative bacteria [21] | Hydrolysis by Gram negative bacteria [22] | Hydrolysis by Gram negative bacteria ([23]; Shigella sonnei NCTC 8219) | Hydrolysis by Gram negative bacteria ([23]; Shigella sonnei NCTC 8574) | Hydrolysis by Gram negative bacteria ([23]; Shigella sonnei NCTC 8586) | Hydrolysis by Gram negative bacteria ([23]; Shigella sonnei NCTC 9774) | Hydrolysis by Gram negative bacteria ([23]; Shigella sonnei NCTC 10352) | Hydrolysis by Gram positive organisms [27] | Hydrolysis by Gram positive organisms ([28]; C. diphtheriae NCTC 3987) | Hydrolysis by Gram positive organisms ([28]; C. diphtheriae NCTC 10356) | Hydrolysis by Gram positive organisms ([28]; C. diphtheriae NCTC 11397) | Hydrolysis by Gram positive organisms ([28]; Corynebacterium diphtheria NEQAS)
+: Hydrolysis by Gram negative bacteria [1] | Hydrolysis by Gram positive organisms [6] | Hydrolysis by Gram negative bacteria [8] | Hydrolysis by Gram negative bacteria ([15]; M. morganii MMO 1) | Hydrolysis by Gram negative bacteria ([15]; M. morganii MMO 2) | Hydrolysis by Gram negative bacteria ([25]; Providencia alcalifaciens PAL 1) | Hydrolysis by Gram negative bacteria ([25]; Providencia alcalifaciens PAL 2)
++: Hydrolysis by Gram positive organisms ([5]; Staphylococcus epidermidis RB64) | Hydrolysis by Gram positive organisms ([7]; Enterococcus faecium 1) | Hydrolysis by Gram positive organisms ([7]; Enterococcus faecium 2) | Hydrolysis by Gram positive organisms ([7]; Enterococcus faecium 3) | Hydrolysis by Gram positive organisms ([7]; Enterococcus faecium 4) | Hydrolysis by Gram positive organisms ([7]; Enterococcus faecium 5) | Hydrolysis by Gram positive organisms ([7]; Enterococcus faecium 6) | Hydrolysis by Gram positive organisms ([7]; Enterococcus faecium 7) | Hydrolysis by Gram positive organisms ([7]; Enterococcus faecium 121285 - wild ′99) | Hydrolysis by Gram positive organisms [12] | Hydrolysis by Gram positive organisms [24] | Hydrolysis by Gram positive organisms [26] | Hydrolysis by Gram negative bacteria [29]
